In patent US20150105252A1, “SUBSTITUTED PYRAZOLES AS HERBICIDES” (E I DU PONT DE NEMOURS AND COMPANY, priority 2013, published 2015):

How the values were obtained:
nutsedge, purple = experiment: Test E preemergence; format: in vivo, Cyperus rotundus; conditions: 21 days, scale 0 to 100
Description: Seeds of plant species selected from bermudagrass (Cynodon dactylon), Surinam grass (Brachiaria decumbens), crabgrass, large (large crabgrass, Digitaria sanguinalis), crabgrass, naked (naked crabgrass, Digitaria nuda), foxtail, green (green foxtail, Setaria viridis), johnsongrass (Sorghum halepense), kochia (Kochia scoparia), morningglory (pitted morningglory, Ipomoea lacunosa), nutsedge, purple (purple nutsedge, Cyperus rotundus), ragweed (common ragweed, Ambrosia elation), mustard, black (black mustard, Brassica nigra), guineagrass (Panicum maximum), dallisgrass (Paspalum dilatatum), barnyardgrass (Echinochloa crus-galli), sandbur (southern sandbur, Cenchrus echinatus), sowthistle (common sowthistle, Sonchus oleraceous), ryegrass, Italian (Italian ryegrass, Lolium multiflorum), signalgrass (broadleaf signalgrass, Brachiaria platyphylla), dayflower, VA (Virginia (VA) dayflower, Commelina virginica), bluegrass (annual bluegrass, Poa annua), quackgrass (Elytrigia repens), mallow (common mallow, Malva sylvestris), buckwheat, wild (wild buckwheat, Polygonum convolvulus), leafy spurge (Euphorbia esula), common chickweed (Stellaria media), wild poinsettia (Euphorbia heterophylla), pigweed, palmer (palmer pigweed, Amaranthus palmeri), and pigweed (redroot pigweed, Amaranthus retroflexus) were planted into a blend of loam soil and sand and treated preemergence with test chemicals formulated in a non-phytotoxic solvent mixture which included a surfactant.
Treated plants and controls were maintained in a greenhouse for 21 days, after which time all species were compared to controls and visually evaluated. Plant response ratings, summarized in Table E, are based on a scale of 0 to 100 where 0 is no effect and 100 is complete control. A dash (-) response means no test result.

dayflower, VA = experiment: Test F postemergence; format: in vivo, Commelina virginica; conditions: scale 0 to 100
Description: Seeds of plant species selected from corn (Zea mays), soybean (Glycine max), velvetleaf (Abutilon theophrasti), lambsquarters (Chenopodium album), wild poinsettia (Euphorbia heterophylla), pigweed, palmer (palmer pigweed, Amaranthus palmeri), common waterhemp (Amaranthus rudis), surinam grass (Brachiaria decumbens), large crabgrass (Digitaria sanguinalis), crabgrass, Brazil (Brazilian crabgrass, Digitaria horizontalis), fall panicum (Panicum dichotomiflorum), giant foxtail (Setaria faberii), green foxtail (Setaria viridis), goosegrass (Eleusine indica), johnsongrass (Sorghum halepense), common ragweed (Ambrosia elation), barnyardgrass (Echinochloa crus-galli), southern sandbur (Cenchrus echinatus), arrowleaf sida (Sida rhombifolia), Italian ryegrass (Lolium multiflorum), dayflower, VA (Virginia (VA) dayflower, Commelina virginica), field bindweed (Convolvulus arvensis), cocklebur (common cocklebur, Xanthium strumarium), morningglory (Ipomoea coccinea), nightshade (eastern black nightshade, Solanum ptycanthum), kochia (Kochia scoparia), yellow nutsedge (Cyperus esculentus), and hairy beggarticks (Bidens pilosa), were planted into a silt loam soil and treated preemergence with test chemicals formulated in a non-phytotoxic solvent mixture which included a surfactant.
At the same time, plants from these crop and weed species and also horseweed (Canada horseweed, Conyza canadensis), smartweed (ladysthumb smartweed, Polygonum persicaria), waterhemp_RES1, (ALS & Triazine resistant common waterhemp, Amaranthus rudis), and waterhemp_RES2, (ALS & HPPD resistant common waterhemp, Amaranthus rudis) were treated with postemergence applications of test chemicals formulated in the same manner. Plants ranged in height from 2 to 18 cm for postemergence treatments (1- to 4-leaf stage). Treated plants and controls were maintained in a greenhouse for 14 to 21 days, after which time all species were compared to controls and visually evaluated. Plant response ratings, summarized in Table F, are based on a scale of 0 to 100 where 0 is no effect and 100 is complete control. A dash (-) response means no test result.

kochia = experiment: Test A preemergence; format: in vivo, Kochia scoparia
Outline: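 Ratings express plant response from 0 (no effect) to 100 (complete control), judged visually against untreated controls after approximately 10 days in the greenhouse. Preemergence applications were made as directed soil sprays onto seeded loam–sand mix, and postemergence applications onto 2–10 cm plants at one- to two-leaf stage.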

ryegrass, Italian = experiment: Test D preemergence; format: in vivo, Lolium multiflorum; conditions: scale 0 to 100
Description: Seeds of plant species selected from bluegrass (annual bluegrass, Poa annua), blackgrass (Alopecurus myosuroides), canarygrass (littleseed canarygrass, Phalaris minor), chickweed (common chickweed, Stellaria media), galium (catchweed bedstraw, Galium aparine), bromegrass, downy (downy bromegrass, Bromus tectorum), field poppy (Papaver rhoeas), field violet (Viola arvensis), foxtail, green (green foxtail, Setaria viridis), deadnettle (henbit deadnettle, Lamium amplexicaule), ryegrass, Italian (Italian ryegrass, Lolium multiflorum), kochia (Kochia scoparia), lambsquarters (Chenopodium album), oilseed rape (Brassica napus), pigweed (redroot pigweed, Amaranthus retroflexus), chamomile (scentless chamomile, Matricaria inodora), speedwell (bird's-eye speedwell, Veronica persica), barley, spring (spring barley, Hordeum vulgare), wheat, spring (spring wheat, Triticum aestivum), buckwheat, wild (wild buckwheat, Polygonum convolvulus), mustard, wild (wild mustard, Sinapis arvensis), oat, wild (wild oat, Avena fatua), radish, wild (wild radish, Raphanus raphanistrum), windgrass (Apera spica-venti), Russian thistle (Salsola kali), barley, winter (winter barley, Hordeum vulgare), and wheat, winter (winter wheat, Triticum aestivum) were planted into a silt loam soil and treated preemergence with test chemicals formulated in a non-phytotoxic solvent mixture which included a surfactant.
At the same time, these species were planted in pots containing Redi-Earth® planting medium (Scotts Company, 14111 Scottslawn Road, Marysville, Ohio 43041) comprising spaghnum peat moss, vermiculite, wetting agent and starter nutrients and treated with postemergence applications of the test chemicals formulated in the same manner. Plants ranged in height from 2 to 18 cm (1- to 4-leaf stage). Treated plants and controls were maintained in a controlled growth environment for 14 to 21 days after which time all species were compared to controls and visually evaluated. Plant response ratings, summarized in Table D, are based on a scale of 0 to 100 where 0 is no effect and 100 is complete control. A dash (-) response means no test result.

[1] = 125 g ai/ha, visual injury, 0 to 100 scale, approx. 10 days
[2] = 500 g ai/ha, visual injury after approx. 10 days, 0 to 100 scale (0 no effect, 100 complete control)

SMILES | Plant response rating, Nutsedge, Purple (nutsedge, purple; 16 g ai/ha) | Plant response rating, Nutsedge, Purple (nutsedge, purple; 31 g ai/ha) | Plant response rating, Nutsedge, Purple (nutsedge, purple; 62 g ai/ha) | Plant response rating, Nutsedge, Purple (nutsedge, purple; 125 g ai/ha) | Plant response rating, Nutsedge, Purple (nutsedge, purple; 250 g ai/ha) | Plant response rating, Dayflower, VA (dayflower, VA; Postemergence, 31 g ai/ha) | Plant response rating, Dayflower, VA (dayflower, VA; Postemergence, 125 g ai/ha) | Plant response rating, Dayflower, VA (dayflower, VA; Postemergence, 250 g ai/ha) | Plant response rating, Dayflower, VA (dayflower, VA; postemergence, 62 g ai/ha) | Plant response rating, Dayflower, VA (dayflower, VA; postemergence, 500 g ai/ha) | Plant response rating, Ryegrass, Italian (ryegrass, Italian; 62 g ai/ha) | Plant response rating, Ryegrass, Italian (ryegrass, Italian; 125 g ai/ha) | Plant response rating, Ryegrass, Italian (ryegrass, Italian; 250 g ai/ha) | further results
CCc1cc(C(=O)NCC(F)(F)F)nn1Cc1ccnc(C(F)(F)F)c1 [Compound 78, 5-ethyl-N-(2,2,2-trifluoroethyl)-1-[[(2-trifluoromethyl)-4-pyridinyl]methyl]-1H-pyrazole-3-carboxamide] | 35 | 75 | 98 | 100 | 100 | 20 | 60 | 90 | 50 | 98 |  |  |  | 
CCc1cc(C(=O)NC(C)C)nn1Cc1ccnc(C(F)(F)F)c1 [Compound 103] | 15 | 75 | 90 | 98 | 100 |  |  |  |  |  |  |  |  | 
CCOc1cc(C(=O)NCC(F)(F)F)nn1Cc1ccnc(C(F)(F)F)c1 [Compound 104] | 35 | 80 | 90 | 98 | 100 | 35 | 70 | 90 | 55 | 95 |  |  |  | 
CCCc1cc(C(=O)NCC(F)(F)F)nn1Cc1ccnc(C(F)(F)F)c1 [Compound 105] | 40 | 70 | 85 | 85 | 95 | 20 | 80 | 85 | 50 | 90 |  |  |  | 
CCONC(=O)c1cc(CC)n(Cc2cc(C(F)(F)F)no2)n1 [Compound 125] |  |  |  |  |  |  |  |  |  |  |  |  |  | Kochia plant response rating (kochia; [1]): 40; Kochia plant response rating (kochia; [2]): 100
CCOc1cc(C(=O)NC2CC2)nn1Cc1ccnc(OC(F)F)c1 [Compound 133] |  |  |  |  |  |  |  |  |  |  |  |  |  | Kochia plant response rating (kochia; [1]): 100; Kochia plant response rating (kochia; [2]): 100
CCCc1cc(C(=O)NCC(F)(F)F)nn1Cc1cc(C(F)(F)F)nn1C [Compound 138] |  |  |  |  |  |  |  |  |  |  | 35 | 70 | 90 | 
CCOc1cc(C(=O)NC(C)C)nn1Cc1ccnc(C(F)(F)F)c1 [Compound 188] |  |  |  |  |  | 40 | 70 | 90 | 50 | 90 | 75 | 85 | 95 | 
CCOc1cc(C(=O)NC2CC2)nn1Cc1ccnc(C(F)(F)F)c1 [Compound 189] | 50 | 50 | 85 |  |  |  |  |  |  |  | 40 | 60 | 95 | Plant response rating, Nutsedge, Purple (nutsedge, purple; 4 g ai/ha): 0; Plant response rating, Nutsedge, Purple (nutsedge, purple; 8 g ai/ha): 10
CCc1cc(C(=O)NCC(F)(F)F)nn1Cc1cc(OC(F)F)nn1C [Compound 206] |  |  |  |  |  |  |  |  |  |  |  |  |  | Kochia plant response rating (0 to 100 scale) (kochia; 125 g ai/ha, visual injury approx. 10 days after treatment): 50
